Each compound was assayed on VCaP cell (assay: VCaP cell proliferation, CellTiter-Glo Luminescent Cell Viability Assay). Conditions: Homo sapiens, VCaP cells.
Type: cell-based
Description: The VCaP cell proliferation activity was determined by CellTiter-Glo Luminescent Cell Viability Assay (Promega, Madison, WI). The cells were inoculated on a 96-well plate in their respective culture mediums, and incubated in an incubator with 5% CO2 at 37° C. After incubation overnight, serial dilutions of the compound were prepared, and added into the 96-well plate. A CellTiter-Glo reagent (volume equal to the volume of the cell culture medium present in each well) was added (e.g., 100 μL of the reagent was added into 100 μL of the cell culture medium in the 96-well plate). The contents were mixed on an orbital shaker for 2 min to induce the cell lysis. The cells in the 96-well plate were incubated at room temperature for 10 min, to stabilize the luminescent signal. Luminescence was recorded: the luminescent signal for each well was acquired using an Infinite M1000 Pro plate reader (Tecan, Zurich, Switzerland), and the data was analyzed using GraphPad Prism software (GraphPad Software Inc, La Jolla, CA).
For `CN(C)C/C=C/C(=O)Nc1cc(N(C(=O)NCc2ccccc2)[C@H]2CC[C@H](Nc3ccc(C#N)cn3)CC2)ccc1-c1ccc(=O)n(C)c1` [YJZ5078], the IC50 was 0.05 to 0.5 µM.
With `C=CC(=O)Nc1cc(N(C(C)=O)[C@H]2CC[C@H](Nc3ccc(C#N)cn3)CC2)ccc1N1CCC(N(C)C)CC1` [YJZ6115, N-(5-(N-((1r,4r)-4-((5-cyanopyridin-2-yl)amino)cyclohexyl)acetamido)-2-(4-(dimethylamino)piperidin-1-yl)phenyl)acrylamide] the IC50 was over 0.5 µM.
Work on `C=CC(=O)Nc1cc(N([C@H]2CC[C@H](Nc3ccc(C#N)cn3)CC2)S(C)(=O)=O)ccc1N1CCC(N(C)C)CC1` [YJZ6131, N-(5-(N-((1r,4r)-4-((5-cyanopyridin-2-yl)amino)cyclohexyl)methylsulfonamido)-2-(4-(dimethylamino)piperidin-1-yl)phenyl)acrylamide] yielded an IC50 of over 0.5 µM.
`C=CC(=O)Nc1cc(N([C@H]2CC[C@H](Nc3ccc(C#N)cn3)CC2)S(=O)(=O)Cc2ccccc2)ccc1N1CCC(N(C)C)CC1` [YJZ6136, N-(5-((N-((1r,4r)-4-((5-cyanopyridin-2-yl)amino)cyclohexyl)-1-phenylmethyl)sulfonamido)-2-(4-(dimethylamino)piperidin-1-yl)phenyl)acrylamide] was tested, and the IC50 was 0.05 to 0.5 µM.
For `C=CC(=O)Nc1cc(N(C(=O)NCc2ccccc2)[C@H]2CC[C@H](Nc3ncc(C#N)cn3)CC2)ccc1N1CCN(C)[C@@H](C)C1` [YJZ7007], the IC50 was 0.015 to 0.05 µM.
`C=CC(=O)Nc1cc(Br)cc(N(C(=O)NCc2ccccc2)[C@H]2CC[C@H](Nc3ccc(C#N)cn3)CC2)c1` [YJZ8053, N-(3-(3-benzyl-1-((1r,4r)-4-((5-cyanopyridin-2-yl)amino)cyclohexyl)ureido)-5-bromophenyl)acrylamide] showed an IC50 of 0.05 to 0.5 µM.
`C=CC(=O)Nc1cc(OC)cc(N(C(=O)NCc2ccccc2)[C@H]2CC[C@H](Nc3ccc(C#N)cn3)CC2)c1` [YJZ8058, N-(3-(3-benzyl-1-((1r,4r)-4-((5-cyanopyridin-2-yl)amino)cyclohexyl)ureido)-5-methoxyphenyl)acrylamide] gave an IC50 of 0.05 to 0.5 µM.
With `C=CC(=O)Nc1cc(N2CCN(C)[C@@H](C)C2)cc(N(C(=O)NCc2ccccc2)[C@H]2CC[C@H](Nc3ccc(C#N)cn3)CC2)c1` [YJZ8062] the IC50 was 0.015 to 0.05 µM.
With `C=CC(=O)Nc1cc(N(C(=O)C(=O)NCc2cccc(F)c2)[C@H]2CC[C@H](Nc3ccc(C#N)cn3)CC2)ccc1N1CCN(C)[C@@H](C)C1` [YJZ8087, N1-(3-acrylamido-4-((S)-3,4-dimethylpiperazin-1-yl)phenyl)-N1-((1r,4S)-4-((5-cyanopyridin-2-yl)amino)cyclohexyl)-N2-(3-fluorobenzyl)oxalamide] the IC50 was 0.015 to 0.05 µM.
Work on `C=CC(=O)Nc1cc(N(C(=O)C(=O)NCc2ccc(F)cc2)[C@H]2CC[C@H](Nc3ccc(C#N)cn3)CC2)ccc1N1CCN(C)[C@@H](C)C1` [YJZ8093, N1-(3-acrylamido-4-((S)-3,4-dimethylpiperazin-1-yl)phenyl)-N1-((1r,4S)-4-((5-cyanopyridin-2-yl)amino)cyclohexyl)-N2-(4-fluorobenzyl)oxalamide] yielded an IC50 of 0.015 to 0.05 µM.
In the case of `C=CC(=O)Nc1cc(N(C(=O)C(=O)NC2CC2)[C@H]2CC[C@H](Nc3ccc(C#N)cn3)CC2)ccc1N1CCN(C)[C@@H](C)C1` [YJZ8095, N1-(3-acrylamido-4-((S)-3,4-dimethylpiperazin-1-yl)phenyl)-N1-((1r,4S)-4-((5-cyanopyridin-2-yl)amino)cyclohexyl)-N2-cyclopropyloxalamide], the IC50 is reported as 0.015 to 0.05 µM.

These compounds were tested against CDK13 (Homo sapiens (Human), UniProt Q14004) (assay: LANCE Ultra kinase assay, CDK13). Conditions: 30 nM enzyme, 60 min pre-incubation, ULight-4E-BP1 150 nM; read-out: CDK13 IC50.
Chain of CDK13 (Q14004 whole entry, looked up): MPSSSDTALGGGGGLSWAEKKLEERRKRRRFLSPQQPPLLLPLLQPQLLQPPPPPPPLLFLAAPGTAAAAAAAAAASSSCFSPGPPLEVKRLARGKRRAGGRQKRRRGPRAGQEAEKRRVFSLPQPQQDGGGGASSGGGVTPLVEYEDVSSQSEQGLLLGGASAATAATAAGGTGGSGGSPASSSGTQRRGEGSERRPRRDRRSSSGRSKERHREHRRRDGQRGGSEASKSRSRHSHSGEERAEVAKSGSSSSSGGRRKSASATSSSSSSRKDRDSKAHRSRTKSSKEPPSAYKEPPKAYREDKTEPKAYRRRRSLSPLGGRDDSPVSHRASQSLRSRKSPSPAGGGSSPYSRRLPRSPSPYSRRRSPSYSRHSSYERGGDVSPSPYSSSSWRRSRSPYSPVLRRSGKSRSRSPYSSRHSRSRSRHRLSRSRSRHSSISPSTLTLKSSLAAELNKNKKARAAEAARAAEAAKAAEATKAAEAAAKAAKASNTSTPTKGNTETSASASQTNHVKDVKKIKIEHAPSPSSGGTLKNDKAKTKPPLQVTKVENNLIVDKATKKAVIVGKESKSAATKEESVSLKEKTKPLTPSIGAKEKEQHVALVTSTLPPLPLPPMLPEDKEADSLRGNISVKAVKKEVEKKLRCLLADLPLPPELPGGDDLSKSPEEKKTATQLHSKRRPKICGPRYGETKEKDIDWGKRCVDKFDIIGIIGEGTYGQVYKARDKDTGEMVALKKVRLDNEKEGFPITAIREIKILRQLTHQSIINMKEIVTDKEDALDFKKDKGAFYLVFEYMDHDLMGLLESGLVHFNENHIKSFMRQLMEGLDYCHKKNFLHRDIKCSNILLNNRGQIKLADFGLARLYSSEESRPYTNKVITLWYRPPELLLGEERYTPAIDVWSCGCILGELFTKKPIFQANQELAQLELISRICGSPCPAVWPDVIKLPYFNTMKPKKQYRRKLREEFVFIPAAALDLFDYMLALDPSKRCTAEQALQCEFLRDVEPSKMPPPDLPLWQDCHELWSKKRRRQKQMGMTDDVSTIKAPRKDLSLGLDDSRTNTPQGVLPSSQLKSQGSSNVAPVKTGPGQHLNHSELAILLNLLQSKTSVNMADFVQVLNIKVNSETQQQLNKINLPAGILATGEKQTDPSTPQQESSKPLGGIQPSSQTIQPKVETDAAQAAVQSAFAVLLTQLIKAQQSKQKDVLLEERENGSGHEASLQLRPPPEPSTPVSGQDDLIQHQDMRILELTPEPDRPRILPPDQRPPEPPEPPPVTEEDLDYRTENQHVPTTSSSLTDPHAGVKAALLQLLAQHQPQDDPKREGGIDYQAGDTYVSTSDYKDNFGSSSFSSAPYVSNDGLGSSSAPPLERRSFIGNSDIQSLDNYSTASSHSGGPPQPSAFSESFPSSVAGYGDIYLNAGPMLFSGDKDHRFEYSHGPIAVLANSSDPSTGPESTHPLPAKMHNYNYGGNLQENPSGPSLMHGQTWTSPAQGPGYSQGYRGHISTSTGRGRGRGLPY
Chain of CDK13 (O75909 whole entry partner, looked up): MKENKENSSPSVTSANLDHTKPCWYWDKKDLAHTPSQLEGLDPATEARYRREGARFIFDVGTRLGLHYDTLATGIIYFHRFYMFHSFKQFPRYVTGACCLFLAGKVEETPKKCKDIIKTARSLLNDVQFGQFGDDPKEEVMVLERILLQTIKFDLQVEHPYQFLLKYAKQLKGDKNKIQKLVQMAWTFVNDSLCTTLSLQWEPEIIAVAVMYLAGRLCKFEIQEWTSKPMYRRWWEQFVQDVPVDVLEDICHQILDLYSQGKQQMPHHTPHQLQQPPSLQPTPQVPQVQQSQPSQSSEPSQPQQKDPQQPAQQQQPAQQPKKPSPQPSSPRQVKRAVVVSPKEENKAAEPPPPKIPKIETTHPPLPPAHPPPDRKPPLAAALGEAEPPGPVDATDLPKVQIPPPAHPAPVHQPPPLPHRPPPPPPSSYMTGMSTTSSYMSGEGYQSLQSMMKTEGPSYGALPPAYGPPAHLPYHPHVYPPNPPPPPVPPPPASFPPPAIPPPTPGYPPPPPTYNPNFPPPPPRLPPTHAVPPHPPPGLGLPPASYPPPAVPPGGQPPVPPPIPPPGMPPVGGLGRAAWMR
Type: biochemical
Description: (§1) The inhibitory activities of the test compound on the kinases were evaluated by LANCE Ultra assay, which was used for detecting ATP-dependent phosphorylation of a ULight-4E-BP1 (Thr37/Thr46) substrate peptide (150 nM). In short, enzymatic reactions were performed in a reaction buffer (25 mM HEPES (pH 7.5), 10 mM MgCl2, 0.01% BSA, 0.01% Tween 20, and 1 mM DTT). The assay was performed in a 384-well plate (6 μL). A final concentration of an ATP substrate was […], and a final concentration of the ULight-4E-BP1 (Thr37/Thr46) substrate peptide was 150 nM. A final concentration of CDK9, CDK12, or CDK13 was 0.3, 30, or 30 nM, respectively. Pre-incubation of the compound and the enzyme was performed at room temperature for 60 min. The reaction was stopped by adding 10 mM EDTA and 0.15 nM Eu-labeled anti-phospho-eIF4E-binding protein 1 (Thr37/46) antibody in LANCE detection buffer after incubation at room temperature for 15, 60, or 90 min. Time-resolved fluorescence (excitation, 320 nm; emission donor, 615 nm; emission acceptor, 665 nm) was monitored using an EnVision spectrophotometer (PerkinElmer). Readings were computed as (acceptor count/donor count)×1000. IC50 values were derived by fitting a sigmoidal dose-response curve to a plot of assay readouts of inhibitor concentrations. All fittings were computed using program Prism 5.03 (GraphPad Software, San Diego, CA).
`C=CC(=O)Nc1cc(N(C(=O)NCc2ccccc2F)[C@H]2CC[C@H](Nc3ccc(C#N)cn3)CC2)ccc1N1CCN(C)[C@@H](C)C1` [YJZ9179, N-(5-(1-((1r,4S)-4-((5-cyanopyridin-2-yl)amino)cyclohexyl)-3-(2-fluorobenzyl)ureido)-2-((S)-3,4-dimethylpiperazin-1-yl)phenyl)acrylamide] gave an IC50 of under 0.015 µM.

Each compound was assayed against CDK12 (Homo sapiens (Human), UniProt Q9NYV4) (assay: LANCE Ultra kinase assay, CDK12). Conditions: 30 nM enzyme, 60 min pre-incubation, ULight-4E-BP1 150 nM; read-out: CDK12 IC50.
Chain of CDK12 (Q9NYV4 whole entry): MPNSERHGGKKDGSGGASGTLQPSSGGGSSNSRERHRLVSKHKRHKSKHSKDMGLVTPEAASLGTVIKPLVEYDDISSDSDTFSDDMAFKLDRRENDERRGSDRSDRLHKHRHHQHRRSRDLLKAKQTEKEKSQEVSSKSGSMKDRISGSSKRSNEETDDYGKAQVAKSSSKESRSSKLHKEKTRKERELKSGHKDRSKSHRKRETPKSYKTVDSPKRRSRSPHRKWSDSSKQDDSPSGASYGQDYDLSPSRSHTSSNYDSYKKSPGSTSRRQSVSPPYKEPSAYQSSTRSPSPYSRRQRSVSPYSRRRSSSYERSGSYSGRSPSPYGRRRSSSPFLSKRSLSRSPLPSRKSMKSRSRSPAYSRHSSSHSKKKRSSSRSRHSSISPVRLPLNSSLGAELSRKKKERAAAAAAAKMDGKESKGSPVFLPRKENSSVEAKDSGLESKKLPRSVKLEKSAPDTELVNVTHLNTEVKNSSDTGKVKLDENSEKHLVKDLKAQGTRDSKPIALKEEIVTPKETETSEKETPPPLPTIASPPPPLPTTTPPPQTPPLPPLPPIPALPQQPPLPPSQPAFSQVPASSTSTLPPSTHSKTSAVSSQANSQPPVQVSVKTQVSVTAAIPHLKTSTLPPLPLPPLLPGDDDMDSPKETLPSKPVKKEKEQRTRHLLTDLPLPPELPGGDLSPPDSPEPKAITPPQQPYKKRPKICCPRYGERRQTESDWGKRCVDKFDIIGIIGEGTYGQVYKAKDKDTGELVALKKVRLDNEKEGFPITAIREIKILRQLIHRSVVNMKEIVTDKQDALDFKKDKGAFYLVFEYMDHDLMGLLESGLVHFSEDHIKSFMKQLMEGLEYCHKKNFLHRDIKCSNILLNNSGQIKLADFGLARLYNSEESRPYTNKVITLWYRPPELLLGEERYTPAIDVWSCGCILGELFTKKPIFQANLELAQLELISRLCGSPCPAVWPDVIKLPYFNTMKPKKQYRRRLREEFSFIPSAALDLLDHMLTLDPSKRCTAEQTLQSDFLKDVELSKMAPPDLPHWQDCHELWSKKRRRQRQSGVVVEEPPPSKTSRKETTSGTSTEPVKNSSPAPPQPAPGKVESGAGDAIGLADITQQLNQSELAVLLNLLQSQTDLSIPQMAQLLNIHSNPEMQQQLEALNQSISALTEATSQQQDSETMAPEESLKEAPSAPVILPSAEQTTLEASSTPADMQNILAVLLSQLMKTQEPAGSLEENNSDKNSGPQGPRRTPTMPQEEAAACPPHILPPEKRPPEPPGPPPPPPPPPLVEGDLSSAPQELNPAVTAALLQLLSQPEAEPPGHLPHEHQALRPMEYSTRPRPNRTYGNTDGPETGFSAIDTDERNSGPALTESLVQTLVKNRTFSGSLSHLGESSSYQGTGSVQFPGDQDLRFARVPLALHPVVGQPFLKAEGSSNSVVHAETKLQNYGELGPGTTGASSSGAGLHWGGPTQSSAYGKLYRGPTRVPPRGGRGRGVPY
Chain of CDK12 (O75909 whole entry partner): as the sequence (O75909 whole entry partner, looked up) above
Type: biochemical
Description: as §1
In the case of `C=CC(=O)Nc1cc(N(C(=O)NCc2ccccc2F)[C@H]2CC[C@H](Nc3ccc(C#N)cn3)CC2)ccc1N1CCN(C)[C@@H](C)C1` [YJZ9179, N-(5-(1-((1r,4S)-4-((5-cyanopyridin-2-yl)amino)cyclohexyl)-3-(2-fluorobenzyl)ureido)-2-((S)-3,4-dimethylpiperazin-1-yl)phenyl)acrylamide], the IC50 is reported as 0.015 to 0.05 µM.
